22 molecules from US20230103791A1 (GLAXOSMITHKLINE INTELLECTUAL PROPERTY DEVELOPMENT LIMITED, priority 2019, published 2023) can be followed below.

T1 sequence (Q9Y5Y9 whole entry): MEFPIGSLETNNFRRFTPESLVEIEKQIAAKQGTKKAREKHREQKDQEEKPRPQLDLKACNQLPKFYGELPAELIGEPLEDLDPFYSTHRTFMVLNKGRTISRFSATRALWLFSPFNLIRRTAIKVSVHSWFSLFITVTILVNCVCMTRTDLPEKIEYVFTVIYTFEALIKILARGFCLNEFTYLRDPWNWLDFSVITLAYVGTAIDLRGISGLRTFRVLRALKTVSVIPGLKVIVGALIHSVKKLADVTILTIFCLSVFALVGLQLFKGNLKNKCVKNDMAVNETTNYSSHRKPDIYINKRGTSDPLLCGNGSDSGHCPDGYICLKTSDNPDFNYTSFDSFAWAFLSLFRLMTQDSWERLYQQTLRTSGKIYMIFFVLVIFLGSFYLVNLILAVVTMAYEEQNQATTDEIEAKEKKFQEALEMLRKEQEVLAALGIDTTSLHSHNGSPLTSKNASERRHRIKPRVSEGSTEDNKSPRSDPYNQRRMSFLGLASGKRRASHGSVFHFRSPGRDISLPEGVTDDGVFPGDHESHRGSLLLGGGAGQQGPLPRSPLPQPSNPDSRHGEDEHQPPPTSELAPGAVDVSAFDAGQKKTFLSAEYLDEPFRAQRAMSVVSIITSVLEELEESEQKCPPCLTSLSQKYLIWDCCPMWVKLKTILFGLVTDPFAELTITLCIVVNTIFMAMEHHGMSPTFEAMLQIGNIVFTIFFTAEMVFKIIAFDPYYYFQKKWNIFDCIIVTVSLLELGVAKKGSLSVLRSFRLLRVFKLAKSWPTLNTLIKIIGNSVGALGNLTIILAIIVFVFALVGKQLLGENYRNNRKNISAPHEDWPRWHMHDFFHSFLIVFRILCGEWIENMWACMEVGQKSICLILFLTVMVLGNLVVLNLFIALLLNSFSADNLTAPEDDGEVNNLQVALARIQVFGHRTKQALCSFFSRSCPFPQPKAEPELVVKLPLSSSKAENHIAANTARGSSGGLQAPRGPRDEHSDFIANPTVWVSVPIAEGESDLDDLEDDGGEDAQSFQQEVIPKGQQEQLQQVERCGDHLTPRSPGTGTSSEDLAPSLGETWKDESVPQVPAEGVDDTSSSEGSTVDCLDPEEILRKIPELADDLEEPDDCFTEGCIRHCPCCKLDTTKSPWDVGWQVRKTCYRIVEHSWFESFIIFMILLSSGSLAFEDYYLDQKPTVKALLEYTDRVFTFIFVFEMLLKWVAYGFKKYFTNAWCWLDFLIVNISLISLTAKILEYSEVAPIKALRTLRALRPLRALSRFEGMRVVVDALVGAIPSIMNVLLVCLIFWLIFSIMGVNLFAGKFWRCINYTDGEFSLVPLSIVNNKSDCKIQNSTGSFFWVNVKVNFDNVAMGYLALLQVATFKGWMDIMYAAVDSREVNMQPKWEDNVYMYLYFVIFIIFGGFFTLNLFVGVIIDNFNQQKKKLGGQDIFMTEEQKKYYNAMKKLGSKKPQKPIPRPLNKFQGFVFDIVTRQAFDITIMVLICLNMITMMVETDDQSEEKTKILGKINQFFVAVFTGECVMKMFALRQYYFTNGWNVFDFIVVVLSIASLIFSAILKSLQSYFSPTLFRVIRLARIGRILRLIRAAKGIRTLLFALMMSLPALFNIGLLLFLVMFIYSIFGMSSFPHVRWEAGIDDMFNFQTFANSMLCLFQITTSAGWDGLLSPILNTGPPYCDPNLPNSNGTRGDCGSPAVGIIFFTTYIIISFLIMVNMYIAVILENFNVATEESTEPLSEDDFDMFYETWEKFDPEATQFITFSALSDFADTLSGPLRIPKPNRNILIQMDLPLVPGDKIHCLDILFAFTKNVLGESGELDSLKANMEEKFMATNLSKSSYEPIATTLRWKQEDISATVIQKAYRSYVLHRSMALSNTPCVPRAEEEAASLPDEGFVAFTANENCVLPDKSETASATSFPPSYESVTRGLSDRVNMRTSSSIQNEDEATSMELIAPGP
T1 sequence (Q07699 19-218 partner): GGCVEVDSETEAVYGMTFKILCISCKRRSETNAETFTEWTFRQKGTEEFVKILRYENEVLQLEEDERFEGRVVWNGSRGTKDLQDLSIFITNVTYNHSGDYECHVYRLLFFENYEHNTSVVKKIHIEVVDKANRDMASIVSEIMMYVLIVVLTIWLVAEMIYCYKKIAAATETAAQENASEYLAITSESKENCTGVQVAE

This assay concerns the target T1, human Nav1.8 (Homo sapiens, UniProt Q9Y5Y9).
T1 construct: expressed in transfected cells; host or cells: HEK293 (HEK293-Nav1.8)
As to the kind of experiment: Nav1.8 sodium channels assay, QPatch 48 HTX electrophysiology in HEK293-Nav1.8 cells. The format is cell-based. Particulars: at least one set of experimental runs; read-out: average pIC50 value against Nav1.8 (converted). As for the experimental part:
Human embryonic kidney […] cells (HEK293) expressing human Nav1.8, human Navβ1 and human TREK1 (HEK293-Nav1.8) were grown at 37° C., 5% CO2 in 150 cm^2 flasks. HEK293-Nav1.8 were passaged every 2-3 days when confluency reached 80-90% in to T175 cell culture flasks.
Pharmacological assessment of the invention was performed using HEK293-Nav1.8 in combination with an assay developed on the QPatch 48 HTX electrophysiological system. HEK293-Nav1.8 were prepared on the day of use by removing culture media, washing in DPBS, adding Accutase (2 ml to cover the surface, aspirate 1 ml then 1.5 min at 37° C.) followed by addition of CHO-SFM II to stop the enzyme digestion and in order to obtain a suspension of 3×10^6 cell/mL.
The invention was prepared in an extracellular solution of the following composition (in mM) NaCl 145, KCl 4, CaCl2 2, MgCl 2, HEPES 1, Glucose 10, pH 7.4 with NaOH Osmolality 300 mOsM/L. The intracellular solution was used of the following composition (in mM) CsF 115, CsCl 20, NaCl 5, EGTA 10, HEPES 10, Sucrose 20, pH 7.2 with CsOH Osmolality 310 mOsm/L.
Utilizing the voltage-clamp mode in the QPatch 48 HTX system a half inactivation state voltage protocol (V1/2) was used to determine pharmacological activity of the invention at Nav1.8 ion channels. A V1/2 protocol was utilized with the following voltage steps: a holding voltage of −100 mV was established followed by a 20 ms voltage step to 0 mV (P1), followed by an inactivating voltage step at −46 mV for 8 seconds, followed by a step to −100 mV for 20 ms, before a 20 ms step to 0 mV (P2) before returning to the holding voltage of −100 mV. This voltage protocol was repeated at a frequency of 0.07 Hz., current magnitude was quantified at the P2 step throughout the recording. Inhibition of the measured current amplitude with the invention was analyzed by fitting a 6-8 point dose-response curve allowing determination of the fifty percent inhibition concentration (IC50). Within the QPatch HTX software, P2 current was normalized according to measurements made at baseline after compound and after positive reference compound and fit to the following equation: […]
To assess current run-down over the course of the experiment vehicle-only wells were utilized and the normalized current with vehicle-only (n.IVEH) was determined. To correct the compound response for run-down, the currents were correct according the following formula: […]
Compounds of the invention are tested for activity against Nav1. 8 sodium channels in the above assay.
In general terms: The patch-clamp technique gives a direct electrical read-out from membranes.
On to `Cc1[nH]c(=O)ccc1N1CN([C@H]2CC[C@H](F)C2)c2cc(C(F)(F)F)ccc2C1=O` (racemic) [Example 208, 1-((1S,3S)-3-fluorocyclopentyl)-3-(2-methyl-6-oxo-1,6-dihydropyridin-3-yl)-7-(trifluoromethyl)-2,3-dihydroquinazolin-4(1H)-one and 1-((1R,3R)-3-fluorocyclopentyl)-3-(2-methyl-6-oxo-1,6-dihydropyridin-3-yl)-7-(trifluoromethyl)-2.3-dihydroquinazolin-4(1H)-one], for which the IC50 was 794 to 7940 nM.
As for `Cc1[nH]c(=O)ccc1N1CN([C@@H]2CCCC[C@H]2C)c2cc(C(F)(F)F)ccc2C1=O` (racemic) [Example 278, Mixture of 3-(2-Methyl-6-oxo-1,6-dihydropyridin-3-yl)-1-((1R,2R)-2-methylcyclohexyl)-7-(trifluoromethyl)-2,3-dihydroquinazolin-4(1H)-one and 3-(2-Methyl-6-oxo-1,6-dihydropyridin-3-yl)-1-((1S,2S)-2-methylcyclohexyl)-7-(trifluoromethyl)-2,3-dihydroquinazolin-4(1H)-one], the figure is not above 100 nM; as for `Cc1cc(F)ccc1N1c2cc(C(F)(F)F)ccc2C(=O)N(c2ccc(=O)[nH]c2)C1C` (single isomer, unassigned) [Example 285], 794 to 7940 nM.
For `Cc1cc(=O)[nH]c(C)c1N1CN(c2ccc(F)cc2C(C)C)c2cc(C(F)(F)F)ccc2C1=O` (single isomer, unassigned) [Example 289, 3-(2,4-Dimethyl-6-oxo-1,6-dihydropyridin-3-yl)-1-(4-fluoro-2-isopropylphenyl)-7-(trifluoromethyl)-2,3-dihydroquinazolin-4(1H)-one], the IC50 was 794 to 7940 nM.
The same measure for `Cc1cc(=O)[nH]c(C)c1N1CN(c2ccc(F)cc2C(C)C)c2cc(C(F)(F)F)ccc2C1=O` (single isomer, unassigned) [Example 290, 3-(2,4-dimethyl-6-oxo-1,6-dihydropyridin-3-yl)-1-(4-fluoro-2-isopropylphenyl)-7-(trifluoromethyl)-2,3-dihydroquinazolin-4(1H)-one]: 126 to 631 nM; for `Cc1cc(=O)[nH]c(C)c1N1CN(c2ccc(F)cc2C(C)C)c2ccc(Cl)cc2C1=O` (single isomer, unassigned) [Example 291, 6-Chloro-3-(2,4-dimethyl-6-oxo-1,6-dihydropyridin-3-yl)-1-(4-fluoro-2-isopropylphenyl)-2,3-dihydroquinazolin-4(1H)-one]: 794 to 7940 nM; for `Cc1cc(=O)[nH]c(C)c1N1CN(c2ccc(F)cc2C(C)C)c2ccc(Cl)cc2C1=O` (single isomer, unassigned) [Example 292, 6-Chloro-3-(2,4-dimethyl-6-oxo-1,6-dihydropyridin-3-yl)-1-(4-fluoro-2-isopropylphenyl)-2,3-dihydroquinazolin-4(1H)-one]: 126 to 631 nM.
As for `Cc1[nH]c(=O)ccc1N1CN(c2ccc(F)cc2C(C)(C)C)c2ccc(Cl)cc2C1=O` (single isomer, unassigned) [Example 293, 1-(2-(tert-Butyl)-4-fluorophenyl)-6-chloro-3-(2-methyl-6-oxo-1,6-dihydropyridin-3-yl)-2,3-dihydroquinazolin-4(1H)-one], the figure is 126 to 631 nM; as for `Cc1[nH]c(=O)ccc1N1CN(c2ccc(F)cc2C(C)(C)C)c2ccc(Cl)cc2C1=O` (single isomer, unassigned) [Example 294, 1-(2-(tert-Butyl)-4-fluorophenyl)-6-chloro-3-(2-methyl-6-oxo-1,6-dihydropyridin-3-yl)-2,3-dihydroquinazolin-4(1H)-one], not above 100 nM; as for `Cc1[nH]c(=O)ccc1N1CN(c2ccc(F)cc2C(C)(C)C)c2cc(C(F)(F)F)ccc2C1=O` (single isomer, unassigned) [Example 295, 1-(2-(tert-butyl)-4-fluorophenyl)-3-(2-methyl-6-oxo-1,6-dihydropyridin-3-yl)-7-(trifluoromethyl)-2,3-dihydroquinazolin-4(1H)-one], 794 to 7940 nM.
As for `Cc1[nH]c(=O)ccc1N1CN(c2ccc(F)cc2C(C)(C)C)c2cc(C(F)(F)F)ccc2C1=O` (single isomer, unassigned) [Example 296, 1-(2-(tert-butyl)-4-fluorophenyl)-3-(2-methyl-6-oxo-1,6-dihydropyridin-3-yl)-7-(trifluoromethyl)-2,3-dihydroquinazolin-4(1H)-one], the figure is not above 100 nM; as for `Cc1cc(F)ccc1N1CN(c2ccc(=O)n(C)c2)C(=O)c2ccc(C(F)(F)F)cc21` [Example 1], 794 to 7940 nM; as for `Cc1cc(F)ccc1N1CN(c2cccnc2)C(=O)c2ccc(C(F)(F)F)cc21` [Example 2], 794 to 7940 nM.
As to `COc1ncc(N2CN(c3ccc(F)cc3C)c3cc(C(F)(F)F)ccc3C2=O)cn1` [Example 3, 1-(4-fluoro-2-methylphenyl)-3-(2-methoxypyrimidin-5-yl)-7-(trifluoromethyl)-2,3-dihydroquinazolin-4(1H)-one], the IC50 was 794 to 7940 nM.
As for `Cc1cc(F)ccc1N1CN(c2ccnn2C)C(=O)c2cc(C(F)(F)F)ccc21` [Example 4, 1-(4-fluoro-2-methylphenyl)-3-(1-methyl-1H-pyrazol-5-yl)-6-(trifluoromethyl)-2,3-dihydroquinazolin-4(1H)-one], the figure is 126 to 631 nM; as for `CC(=O)Nc1cccc(N2CN(c3ccc(F)cc3C)c3cc(C(F)(F)F)ccc3C2=O)c1` [Example 5, N-(3-(1-(4-fluoro-2-methylphenyl)-4-oxo-7-(trifluoromethyl)-1,4-dihydroquinazolin-3(2H)-yl)phenyl)aceta-mide], 794 to 7940 nM.
As for `CC(=O)Nc1ccc(N2CN(c3ccc(F)cc3C)c3cc(C(F)(F)F)ccc3C2=O)cc1` [Example 6, N-(4-(1-(4-fluoro-2-methylphenyl)-4-oxo-7-(trifluoromethyl)-1,4-dihydroquinazolin-3(2H)-yl)phenyl)aceta-mide], the figure is 794 to 7940 nM; as for `Cc1cc(F)ccc1N1CN(c2ccc(C(N)=O)nc2)C(=O)c2c1ccc(Cl)c2F` [Example 7, 5-(6-chloro-5-fluoro-1-(4-fluoro-2-methylphenyl)-4-oxo-1,4-dihydroquinazolin-3(2H)-yl)picolinamide], 794 to 7940 nM; as for `Cc1cc(F)ccc1N1CN(c2ccnc(C(N)=O)c2)C(=O)c2c1ccc(Cl)c2F` [Example 8, 4-(6-chloro-5-fluoro-1-(4-fluoro-2-methylphenyl)-4-oxo-1,4-dihydroquinazolin-3(2H)-yl)picolinamide], 794 to 7940 nM.
Take `COc1ccc(N2CN(c3ccc(F)cc3Br)c3ccc(C(F)(F)F)cc3C2=O)c(C)n1` [Example 9, 1-(2-bromo-4-fluorophenyl)-3-(6-methoxy-2-methylpyridin-3-yl)-6-(trifluoromethyl)-2,3-dihydroquinazolin-4(1H)-one]: the IC50 was 794 to 7940 nM.
As for `COc1ccc(N2CN(c3ccc(F)cc3C)c3cc(C(F)(F)F)ccc3C2=O)cn1` [Example 10, 1-(4-fluoro-2-methylphenyl)-3-(6-methoxypyridin-3-yl)-7-(trifluoromethyl)-2,3-dihydroquinazolin-4(1H)-one], the figure is 794 to 7940 nM; as for `Cc1cnccc1N1CN(c2ccc(OC(F)(F)F)cc2C)c2cc(F)c(Cl)cc2C1=O` [Example 11, 6-chloro-7-fluoro-1-(2-methyl-4-(trifluoromethoxy)phenyl)-3-(3-methylpyridin-4-yl)-2,3-dihydroquinazolin-4(1H)-one], 126 to 631 nM.
